From patent US20240308973A1, “PHOSPHODIESTERASE 3 (PDE3) INHIBITORS” (Zoetis Services LLC, priority 2023, published 2024)
“And” between values parts separate entries of the source, which are not always exact repeats. Identical values can stand only once. Like-named read-outs stand apart in the source and are kept apart here.

Legend:
[1] = molecular target: dog PDE3A recombinant enzyme (Canis lupus familiaris, UniProt A0A8I3NYE0); assay: cPDE3A assay (fluorescent polarization); type: biochemical; settings: canine PDE3A, read-out: cPDE3 Inhibition (IC50)
dog PDE3A recombinant enzyme, sequence (A0A8I3NYE0 1-1135): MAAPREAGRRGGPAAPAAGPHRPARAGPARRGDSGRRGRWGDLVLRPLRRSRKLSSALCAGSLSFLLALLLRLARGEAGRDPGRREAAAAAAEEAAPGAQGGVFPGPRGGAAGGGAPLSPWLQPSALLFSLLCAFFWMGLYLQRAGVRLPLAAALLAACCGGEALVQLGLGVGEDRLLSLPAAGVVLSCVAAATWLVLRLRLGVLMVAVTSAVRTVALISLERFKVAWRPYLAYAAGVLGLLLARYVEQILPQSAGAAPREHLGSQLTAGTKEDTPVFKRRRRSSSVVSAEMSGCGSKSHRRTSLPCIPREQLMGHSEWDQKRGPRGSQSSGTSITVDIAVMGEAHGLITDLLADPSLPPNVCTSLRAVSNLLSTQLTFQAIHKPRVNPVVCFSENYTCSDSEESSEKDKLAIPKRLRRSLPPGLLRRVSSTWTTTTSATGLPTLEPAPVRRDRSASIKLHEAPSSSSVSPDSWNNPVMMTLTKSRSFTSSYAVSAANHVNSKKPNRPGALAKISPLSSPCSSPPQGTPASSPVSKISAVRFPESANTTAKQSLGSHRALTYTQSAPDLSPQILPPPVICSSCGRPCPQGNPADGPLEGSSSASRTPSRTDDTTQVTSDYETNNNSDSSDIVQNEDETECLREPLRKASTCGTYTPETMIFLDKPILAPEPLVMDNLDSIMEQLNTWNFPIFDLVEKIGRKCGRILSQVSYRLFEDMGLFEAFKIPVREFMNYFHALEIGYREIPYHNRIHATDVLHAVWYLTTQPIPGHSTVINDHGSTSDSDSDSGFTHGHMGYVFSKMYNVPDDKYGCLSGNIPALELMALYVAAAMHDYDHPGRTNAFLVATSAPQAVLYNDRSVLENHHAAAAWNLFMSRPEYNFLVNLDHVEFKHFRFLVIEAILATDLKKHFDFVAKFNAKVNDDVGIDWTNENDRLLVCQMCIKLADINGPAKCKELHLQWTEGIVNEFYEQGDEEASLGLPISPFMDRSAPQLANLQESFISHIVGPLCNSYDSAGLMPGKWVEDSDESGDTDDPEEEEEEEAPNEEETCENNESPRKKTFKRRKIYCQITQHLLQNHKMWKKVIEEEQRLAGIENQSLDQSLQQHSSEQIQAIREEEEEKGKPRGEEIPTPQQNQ
Description: cPDE3A Assay (Fluorescent Polarization)
The canine PDE3A assay kit was purchased from BPS Bioscience (San Diego, CA) which included dog PDE3A recombinant enzyme, FAM-cyclic-3′,5′-AMP (20 μM), PDE3 assay buffer, binding agent, binding agent diluent and microtiter 96-well plates. Compounds were initially dissolved in DMSO. The stock concentration was subsequently diluted in cPDE assay buffer (10× stock) and serially diluted to give a concentration response curve starting at 10 μM (≥7 total concentrations). Following the serial dilution, compound solution (0.1% final DMSO) was transferred to an assay plate (96-well) where the remaining canine PDE3A assay reagents were dispensed according to the BPS Bioscience® protocol (catalog #79735) procedure using a final concentration of 5 pg/μL of enzyme. Each compound was evaluated for the inhibition of the canine PDE3A enzyme activity using the measurement of fluorescent polarization changes. The 50% inhibition concentration (IC50) nM was calculated and reported.

[2] = tested on: human iCell cardiomyocytes; assay: Human iPS cardiomyocyte contractility assay; type: cell-based; settings: human cardiomyocytes chronically paced (2 Hz)
Description: Human iPS Cardiomyocyte Contractility Assay
Frozen human iCell® cardiomyocytes (FujiFilm® Cellular Dynamics Inc.) were thawed and plated in the center of each well of an Axion® Biosystems cytoview 24-well microelectrode array plate that was coated with human fibronectin in a 5-6 μL droplet at a density of 7-10×10^6 cells/mL. The cells were maintained in culture in a 37° C. humidified incubator at 5% CO2. After at least seven days in culture with maintenance media changes every 2-3 days, the cells were paced at 2 Hz for approximately 48 hours on the Axion® Biosystems Maestro Pro instrument using the field potential application in the Axis Navigator software before returning to the spontaneous beating for at least 10 minutes in the contractility application (i.e., Axion® Biosystems procedure for Positive Inotropy Protocol). […] Readings were taken at 3, 13, 23, 33, 43 and 53 minutes. […] Each compound was evaluated for the contractility response relative to the vehicle control (DMSO). […]
Myocardial contractility represents the innate ability of the heart muscle to contract. […] Cardiomyocyte contractibility of the compounds of the invention, as defined by changes in mean % delta beat amplitude, were determined to have a positive inotropic effect (i.e., a stronger cardiac muscle contraction force).

[3] = Dog plasma half-life after oral dose; type: in vivo; settings: Beagle dogs, plasma over 72 hours, read-out: t½ (hrs), Dog Plasma Compound Half-life (converted)
Description: Lastly, plasma half-life was assessed for a number of compounds in dogs. Beagle dogs were given an oral dose (0.1 mg/kg) of the respective compound accounting for a dose amount of about 1 mg/dog. Pimopendan was administered at a 0.3 mg/kg dose.

[4] = tested on: NT-proBNP; assay: NT-proBNP circulating biomarker reduction; type: in vivo, canine; settings: for reduced NT-proBNP levels: over a 12 hour period
Description: NT-proBNP is a standard circulating biomarker of canine MMVD secreted by ventricular cardiomyocytes in response to stretching from volume or pressure overload. It is a well-defined diagnostic and prognostic biological indicator of myocardial wall stress and can be used as a biomarker for acute changes in left ventricular loading conditions. […] In one instance, Example #26 had reduced NT-proBNP levels by 49% and 62% at doses of 0.03 and 0.1 mg/kg, respectively, over a 12 hour period.

[5] = tested on: PDE3; settings: JMC Vol. 35, 1992; cited from earlier work
[6] = orally administered; cited from earlier work
[7] = tested on: adult human primary ventricular cardiomyocytes; assay: contractility amplitude (CA) assay; type: cell-based; settings: for Contractility amplitude: vehicle 100, 1 Hz
Description: Further, Example #57 (30 μM) was tested in a contractility amplitude (CA) assay using adult human primary ventricular cardiomyocytes dissociated from human donor hearts to determine the potential of the compound to exert its positive inotropic effect by a single (Ca^2+ sensitization or inhibition of PDE3) or dual (Ca^2+ sensitization and inhibition of PDE3) mechanism of action. Cardiomyocytes were incubated at 35° C. under continuous perfusion (2 mL/minute) in a buffer (vehicle) solution (HEPES (10 mM), NaCl (145 mM), KCl (4 mM), MgCl2 1 mM), CaCl2) (1.8 mM) and dextrose (11.1 mM)) plus 0.1% DMSO). Cells were equilibrated for a minimum of 5 minutes and stimulated with 1.0 Hz with a 1.5× stimulation intensity. A 100 μM IBMX (3-isobutyl-1-methylxanthine) non-selective inhibitor of PDE was used. Treatment time and stimulation was 300 seconds at 1.0 Hz. Data was collected using MyoBLAZER™ (v 2.9.2) software. Equilibrated cells (n=12) were stimulated with supra-threshold voltage at 1 Hz pacing frequency (bipolar pulse of 3 ms duration). Starting at 1 V, the amplitude of the stimulating pulse was increased until the cardiomyocytes started generating contraction-relaxation cycles. Contractility amplitude was calculated from the average of the last 20 contractility transients. Contractility amplitude for vehicle, IBMX and IBMX with Example #57 was 100, 136.8 and 267.6, respectively. […] IBMX increased CA by inhibiting PDE, however, there was an even larger increase in CA in the presence of Ex #57. Additionally, the CA assay was used to assess the potential of Ex #57 to exert a shift in the calcium concentration EC50. […] From this second CA study, contractility of the myocytes was dose dependent on calcium concentration. Contractility at 100 μM, 1000 μM and 10,000 μM CaCl2 was 3.11, 56.31 and 228.61, respectively. With the addition of 30 μM Ex #57, respective contractility values increased to 40.17, 182.67 and 284.27.

[8] = tested on: calcium sensitization; settings: JMC Vol. 35, 1992; cited from earlier work

COc1ccc(-c2nc3ccc(C4=NNC(=O)CC4C)cc3[nH]2)cc1 (racemic) [pimobendan, 6-(2-(4-methoxyphenyl)-1H-benzo[d]imidazol-6-yl)-5-methyl-4,5-dihydropyridazin-3 (2H)-one]
IC50 [1]: ~1530 nM and 1530 nM | contractility of cardiomyocytes (changes in mean % delta beat amplitude) [2]: dose dependently increases contractility | half-life ([3]; oral, 0.3 mg/kg dose): 0.4 h | decrease in NT-proBNP ([4]; labeled dose, 24 hours post dose): 41% | IC50 [5]: 560 nM | bioavailability [6]: 60-65% | elimination half-life [6]: ~1.6 h | tmax [6]: about 2 hours

CC1CC(=O)NN=C1c1cc(F)c2c(c1)C(C)(C)C(=O)N2 (stereo not drawn) [Example #26, 7-fluoro-3,3-dimethyl-5-(4-methyl-6-oxo-1,4,5,6-tetrahydropyridazin-3-yl)indolin-2-one]
IC50 [1]: 7.4 nM | reduced NT-proBNP levels ([4]; 0.03 mg/kg): 49% | reduced NT-proBNP levels ([4]; 0.1 mg/kg): 62%

CC1SC(=O)NN=C1c1cc(F)c2c(c1)CC(=O)N2 (stereo not drawn) [Example #57, 5-(7-fluoro-2-oxoindolin-5-yl)-6-methyl-3,6-dihydro-2H-1,3,4-thiadiazin-2-one]
IC50 [1]: 14.2 nM | Contractility ([7]; 100 μM CaCl2 with 30 μM Ex #57 (3.11 without)): 40.17 | Contractility amplitude ([7]; 100 μM IBMX with 30 μM Example #57): 267.6 | Contractility ([7]; 1000 μM CaCl2 with 30 μM Ex #57 (56.31 without)): 182.67 | Contractility ([7]; 10,000 μM CaCl2 with 30 μM Ex #57 (228.61 without)): 284.27 | EC50 ([7]; Homo sapiens, Cardiomyocyte, without Ex #57 1286 μM, read-out: calcium concentration EC50 with Ex #57): 821000 nM | half-life ([3]; oral dose 0.1 mg/kg): 10 h

CC1SC(=O)NN=C1c1cc(-c2cscn2)c2c(c1)C(C)(C)C(=O)N2 (stereo not drawn) [Example #68, 5-(3,3-dimethyl-2-oxo-7-(thiazol-4-yl)indolin-5-yl)-6-methyl-3,6-dihydro-2H-1,3,4-thiadiazin-2-one]
IC50 [1]: 118 nM | half-life ([3]; oral dose 0.1 mg/kg): 12 h

CC1SC(=O)NN=C1c1cc2c(c(-c3ccc(Cl)cc3)c1)NC(=O)C2 (stereo not drawn) [Example #71, 5-(7-(4-chlorophenyl)-2-oxoindolin-5-yl)-6-methyl-3,6-dihydro-2H-1,3,4-thiadiazin-2-one]
IC50 [1]: 90.4 nM | half-life ([3]; oral dose 0.1 mg/kg): 5.4 h

O=C1CCCc2cc(C3=NNC(=O)SC3)ccc2N1 [Example #72, 5-(2-oxo-2,3,4,5-tetrahydro-1H-benzo[b]azepin-7-yl)-3,6-dihydro-2H-1,3,4-thiadiazin-2-one]
IC50 [1]: 28.2 nM | half-life ([3]; oral dose 0.1 mg/kg): 3.9 h

Cc1cc(C2=NNC(=O)SC2C)cc2c1NC(=O)CCC2 (stereo not drawn) [Example #73, 6-methyl-5-(9-methyl-2-oxo-2,3,4,5-tetrahydro-1H-benzo[b]azepin-7-yl)-3,6-dihydro-2H-1,3,4-thiadiazin-2-one]
IC50 [1]: 4.9 nM | half-life ([3]; oral dose 0.1 mg/kg): 7.5 h

CC1SC(=O)NN=C1c1cc(F)c2c(c1)C(C)(C)C(=O)N2 (stereo not drawn) [Example #74, 5-(7-fluoro-3,3-dimethyl-2-oxoindolin-5-yl)-6-methyl-3,6-dihydro-2H-1,3,4-thiadiazin-2-one]
IC50 [1]: 13.3 nM | half-life ([3]; oral dose 0.1 mg/kg): 55 h

CC1SC(=O)NN=C1c1cc(Cl)c2c(c1)C(C)(C)C(=O)N2 (stereo not drawn) [Example #75, 5-(7-chloro-3,3-dimethyl-2-oxoindolin-5-yl)-6-methyl-3,6-dihydro-2H-1,3,4-thiadiazin-2-one]
IC50 [1]: 9.7 nM | half-life ([3]; oral dose 0.1 mg/kg): 50 h

CC1SC(=O)NN=C1c1cc(Br)c2c(c1)C(C)(C)C(=O)N2 (stereo not drawn) [Example #76, 5-(7-bromo-3,3-dimethyl-2-oxoindolin-5-yl)-6-methyl-3,6-dihydro-2H-1,3,4-thiadiazin-2-one]
IC50 [1]: 15.2 nM | half-life ([3]; oral dose 0.1 mg/kg): 40 h

CC1(C)C(=O)Nc2c(Cl)cc(-c3cnc4c(c3)CC(=O)N4)cc21 [Example #85, 5-(7-chloro-3,3-dimethyl-2-oxoindolin-5-yl)-1,3-dihydro-2H-pyrrolo[2,3-b]pyridin-2-one]
IC50 [1]: 49.7 nM | half-life ([3]; oral dose 0.1 mg/kg): 9 h

CC1(C)C(=O)Nc2c(Cl)cc(-c3cncnc3)cc21 [Example #86, 7-chloro-3,3-dimethyl-5-(pyrimidin-5-yl)indolin-2-one]
IC50 [1]: 115 nM | half-life ([3]; oral dose 0.1 mg/kg): 96 h

CC(C)Cn1c(=O)n(C)c(=O)c2[nH]cnc21 [IBMX, 3-isobutyl-1-methylxanthine, reference compound]
Contractility amplitude ([7]; 100 μM IBMX alone): 136.8

CC1(C)C(=O)Nc2ccc(C3=NNC(=O)CC3)cc21 [indolidan]
IC50 [5]: 520 nM | calcium-sensitizing properties [8]: lacked calcium-sensitizing properties
